Assays:
[1] = tested on: Spontaneously hypertensive rats (SHR); experiment: Acute Efficacy in Spontaneously Hypertensive Rats (SHR), telemetry blood pressure; format: in vivo, rat; conditions: single oral gavage
Excerpt: Spontaneously hypertensive rats (SHR, male, Charles River) were implanted with DSI TA11PA-C40 telemetry device (Data Sciences, Inc., St. Paul, Minn.) under isoflurane or ketamine/metomidine anesthesia. The telemetry unit catheter was inserted into the descending aorta via the femoral artery and the telemetry device was implanted subcutaneously in the left flank area. Animals were allowed to recover from surgery for 14 days before the start of any studies. Blood pressure, heart rate, and activity signals from conscious, freely moving rats were recorded continuously for 30 seconds every 10 minutes. On the day prior to administration of compound, a single oral dose of vehicle (10% transcutol/20% Cremophor/70% water) was administered to all animals to establish baseline control data. The blood pressure lowering efficacy of compound (PO) or vehicle was evaluated following a single oral gavage. Data were collected as hourly averages, and changes in blood pressure were calculated by subtracting control baseline data on an hourly basis. Animals were maintained on normal diet with a 12 hour light-dark cycle.
Maximum peak decreases of systolic blood pressure (SBP) in SHR at a particular P.O. dose (mpk milligrams per kilogram) for the following representative compounds are provided. Category A=SBP in SHRs <20 mmHg; Category B=SBP in SHRs 20-40 mmHg; Category C=SBP in SHRs >40 mmHg.

sGC α1/β1 heterodimer = target: T1, sGC α1/β1 heterodimer (Homo sapiens, UniProt Q02108+Q02153); experiment: Cell-Based sGC Functional Assay (CASA Assay), cGMP generation in CHO-K1/sGC cells;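 further: reference Compound A is a published heme-dependent sGC activator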; conditions: maximum cGMP production of Compound A set to 100% activation, read-out: % Act. (percent activation relative to Compound A)
T1 construct: expressed in transfected cells
T1 sequence (Q02108 1-690): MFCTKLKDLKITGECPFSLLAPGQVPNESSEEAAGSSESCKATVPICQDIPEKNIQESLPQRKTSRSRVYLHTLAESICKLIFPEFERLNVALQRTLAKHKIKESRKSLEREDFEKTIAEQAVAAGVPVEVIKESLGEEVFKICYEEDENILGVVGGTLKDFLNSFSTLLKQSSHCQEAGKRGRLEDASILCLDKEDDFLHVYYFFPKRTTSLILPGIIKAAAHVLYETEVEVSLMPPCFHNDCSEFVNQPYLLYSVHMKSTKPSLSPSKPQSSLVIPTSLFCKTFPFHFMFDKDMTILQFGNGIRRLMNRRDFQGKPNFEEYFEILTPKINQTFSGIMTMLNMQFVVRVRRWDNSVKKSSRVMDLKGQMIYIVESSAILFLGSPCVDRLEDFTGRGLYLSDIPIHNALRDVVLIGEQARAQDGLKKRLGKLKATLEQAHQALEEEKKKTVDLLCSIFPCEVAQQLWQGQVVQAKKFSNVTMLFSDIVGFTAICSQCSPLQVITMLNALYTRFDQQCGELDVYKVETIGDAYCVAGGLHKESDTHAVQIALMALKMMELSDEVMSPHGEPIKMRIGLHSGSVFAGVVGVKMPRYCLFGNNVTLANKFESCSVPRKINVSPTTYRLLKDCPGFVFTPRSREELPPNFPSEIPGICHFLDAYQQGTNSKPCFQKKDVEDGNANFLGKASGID
T1 sequence (Q02153 1-619): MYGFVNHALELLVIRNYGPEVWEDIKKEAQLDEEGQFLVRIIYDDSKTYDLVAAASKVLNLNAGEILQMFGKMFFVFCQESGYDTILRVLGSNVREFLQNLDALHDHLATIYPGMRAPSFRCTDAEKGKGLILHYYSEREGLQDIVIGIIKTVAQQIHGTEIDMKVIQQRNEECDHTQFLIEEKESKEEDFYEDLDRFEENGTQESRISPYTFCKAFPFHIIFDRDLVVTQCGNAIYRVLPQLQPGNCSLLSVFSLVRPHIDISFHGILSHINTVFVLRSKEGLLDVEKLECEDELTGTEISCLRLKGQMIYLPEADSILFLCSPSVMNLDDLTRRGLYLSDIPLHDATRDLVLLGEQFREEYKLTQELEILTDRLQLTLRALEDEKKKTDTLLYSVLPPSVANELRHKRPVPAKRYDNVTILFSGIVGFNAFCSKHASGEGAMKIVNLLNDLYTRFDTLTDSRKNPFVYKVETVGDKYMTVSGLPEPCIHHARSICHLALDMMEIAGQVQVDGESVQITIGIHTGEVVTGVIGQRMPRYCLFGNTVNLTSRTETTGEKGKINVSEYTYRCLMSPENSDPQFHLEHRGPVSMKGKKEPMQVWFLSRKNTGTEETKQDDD
Procedure, shortened: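 Intracellular cGMP quantified by HTRF competition after 1 h, 37 °C compound exposure, with or without 1 μM DETA-NO, in stable CHO-K1/sGC α1/β1 cells (4×10^5/mL; buffer with 0.5 mM IBMX, 5 mM MgCl2, 10 mM HEPES, 0.05% BSA; 2.5% DMSO). Activation normalized to reference Compound A maximum; 4P fit.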

Emax (sGC α1/β1 heterodimer) [%]	SMILES	Maximum peak decrease of systolic blood pressure (SBP) in SHR, Cat. ([1]; P.O. 1 mpk)	Maximum peak decrease of systolic blood pressure (SBP) in SHR, Cat. ([1]; P.O. 0.3 mpk)
159	CCCCc1nc(-c2nc(O)c3c(n2)NC(=O)C3(C)c2ccc(F)cn2)cn2ncnc12 (stereo not drawn) [Example 155B, 2-(8-butyl-[1,2,4]triazolo[1,5-a]pyrazin-6-yl)-5-(5-fluoropyridin-2-yl)-4-hydroxy-5-methyl-5H-pyrrolo[2,3-d]pyrimidin-6(7H)-one]	B (Category B=SBP in SHRs 20-40 mmHg)	–
150	O=C1Nc2nc(-c3cn4ncnc4c(CCCC(F)(F)F)n3)nc(O)c2C1(c1ccc(Cl)cc1)C1CC1 (stereo not drawn) [Example 140B, 5-(4-chlorophenyl)-5-cyclopropyl-4-hydroxy-2-(8-(4,4,4-trifluorobutyl)-[1,2,4]triazolo[1,5-a]pyrazin-6-yl)-5H-pyrrolo[2,3-d]pyrimidin-6(7H)-one]	A (Category A=SBP in SHRs <20 mmHg)	–
137	Cc1nc2c(CCC(F)(F)C(F)(F)F)nc(-c3nc(N)c4c(n3)NC(=O)[C@@]4(C)c3ccc(F)cc3)cn2n1 [Example 88B, (S)-4-amino-5-(4-fluorophenyl)-5-methyl-2-(2-methyl-8-(3,3,4,4,4-pentafluorobutyl)-[1,2,4]triazolo[1,5-a]pyrazin-6-yl)-5H-pyrrolo[2,3-d)pyrimidin-6(7H)-one]	C (Category C=SBP in SHRs >40 mmHg)	–
208	CC1(c2ccccn2)C(=O)Nc2nc(-c3cn4ncnc4c(CCC(F)(F)C(F)(F)F)n3)nc(N)c21 (stereo not drawn) [Example 11B, 4-amino-5-methyl-2-(8-(3,3,4,4,4-pentafluorobutyl)-[1,2,4]triazolo[1,5-a]pyrazin-6-yl)-5-(pyridin-2-yl)-5H-pyrrolo[2,3-d]pyrimidin-6(7H)-one]	–	B (Category B=SBP in SHRs 20-40 mmHg)
82	CC1(c2ccc(F)c(Cl)c2)C(=O)Nc2nc(-c3cn4ncnc4c(CCCC(F)(F)F)n3)nc(N)c21 (stereo not drawn) [Example 42B, 4-amino-5-(3-chloro-4-fluorophenyl)-5-methyl-2-(8-(4,4,4-trifluorobutyl)-[1,2,4]triazolo[1,5-a]pyrazin-6-yl)-5H-pyrrolo[2,3-d]pyrimidin-6(7H)-one]	–	–
117	Nc1nc(-c2cn3ncnc3c(CCCC(F)(F)F)n2)nc2c1C(c1ccc(F)cc1)(C1CC1)C(=O)N2 (stereo not drawn) [Example 30B, 4-amino-5-cyclopropyl-5-(4-fluorophenyl)-2-(8-(4,4,4-trifluorobutyl)-[1,2,4]triazolo[1,5-a]pyrazin-6-yl)-5H-pyrrolo[2,3-d]pyrimidin-6(7H)-one]	–	–
101	CC1(c2ccc(Cl)cc2)C(=O)Nc2nc(-c3cn4ncnc4c(CCCC(F)(F)F)n3)nc(N)c21 (stereo not drawn) [Example 29A, 4-amino-5-(4-chlorophenyl)-5-methyl-2-(8-(4,4,4-trifluorobutyl)-[1,2,4]triazolo[1,5-a]pyrazin-6-yl)-5H-pyrrolo[2,3-d]pyrimidin-6(7H)-one]	–	–
64	CC1(c2ccccn2)C(=O)Nc2nc(-c3cn4ncnc4c(CCCC(F)(F)F)n3)nc(O)c21 (stereo not drawn) [Example 145B, 4-hydroxy-5-methyl-5-(pyridin-2-yl)-2-(8-(4,4,4-trifluorobutyl)-[1,2,4]triazolo[1,5-a]pyrazin-6-yl)-5H-pyrrolo[2,3-d]pyrimidin-6(7H)-one]	–	–
130	COc1ccc(C2(C)C(=O)Nc3nc(-c4cn5ncnc5c(CCCC(F)(F)F)n4)nc(N)c32)nc1 (stereo not drawn) [Example 40A, 4-amino-5-(5-methoxypyridin-2-yl)-5-methyl-2-(8-(4,4,4-trifluorobutyl)-[1,2,4]triazolo[1,5-a]pyrazin-6-yl)-5H-pyrrolo[2,3-d]pyrimidin-6(7H)-one]	–	–
102	CC1(c2ccc(Cl)cc2)C(=O)Nc2nc(-c3cn4ncnc4c(CCC(F)(F)C(F)(F)F)n3)nc(O)c21 (stereo not drawn) [Example 126A, 5-(4-chlorophenyl)-4-hydroxy-5-methyl-2-(8-(3,3,4,4,4-pentafluorobutyl)-[1,2,4]triazolo[1,5-a]pyrazin-6-yl)-5H-pyrrolo[2,3-d]pyrimidin-6(7H)-one]	–	–
96	COc1ccc(C2(C)C(=O)Nc3nc(-c4cn5ncnc5c(CCCC(F)(F)F)n4)nc(O)c32)nc1 (stereo not drawn) [Example 148A, 4-hydroxy-5-(5-methoxypyridin-2-yl)-5-methyl-2-(8-(4,4,4-trifluorobutyl)-[1,2,4]triazolo[1,5-a]pyrazin-6-yl)-5H-pyrrolo[2,3-d]pyrimidin-6(7H)-one]	–	–
132	CCCCc1nc(-c2nc(N)c3c(n2)NC(=O)C3(C)c2nnc(C(F)(F)F)o2)cn2ncnc12 (stereo not drawn) [Example 102A, 4-amino-2-(8-butyl-[1,2,4]triazolo[1,5-a]pyrazin-6-yl)-5-methyl-5-(5-(trifluoromethyl)-1,3,4-oxadiazol-2-yl)-5H-pyrrolo[2,3-d]pyrimidin-6(7H)-one]	–	–
109	Cc1ccc(C2(C)C(=O)Nc3nc(-c4cn5ncnc5c(CCC(F)(F)C(F)(F)F)n4)nc(O)c32)nc1 (stereo not drawn) [Example 130B, 4-hydroxy-5-methyl-5-(5-methylpyridin-2-yl)-2-(8-(3,3,4,4,4-pentafluorobutyl)-[1,2,4]triazolo[1,5-a]pyrazin-6-yl)-5H-pyrrolo[2,3-d]pyrimidin-6(7H)-one]	–	–
106	Cc1nnc(C2(C)C(=O)Nc3nc(-c4cn5ncnc5c(CCC(F)(F)C(F)(F)F)n4)nc(N)c32)o1 (single isomer, unassigned) [Example 97B, 4-Amino-5-methyl-5-(5-methyl-1,3,4-oxadiazol-2-yl)-2-(8-(3,3,4,4,4-pentafluorobutyl)-[1,2,4]triazolo[1,5-a]pyrazin-6-yl)-5H-pyrrolo[2,3-d]pyrimidin-6(7H)-one]	–	–
72	N#Cc1ccc(C2(C3CC3)C(=O)Nc3nc(-c4cn5ncnc5c(CCC(F)(F)C(F)(F)F)n4)nc(N)c32)nc1 (stereo not drawn) [Example 118A, 6-(4-Amino-5-cyclopropyl-6-oxo-2-(8-(3,3,4,4,4-pentafluorobutyl)-[1,2,4]triazolo[1,5-a]pyrazin-6-yl)-6,7-dihydro-5H-pyrrolo[2,3-d]pyrimidin-5-yl)nicotinonitrile]	–	–
63	Cc1ccc(C2(C)C(=O)Nc3nc(-c4cn5ncnc5c(CCCC(F)(F)F)n4)nc(O)c32)nc1 (stereo not drawn) [Example 149B, 4-hydroxy-5-methyl-5-(5-methylpyridin-2-yl)-2-(8-(4,4,4-trifluorobutyl)-[1,2,4]triazolo[1,5-a]pyrazin-6-yl)-5H-pyrrolo[2,3-d]pyrimidin-6(7H)-one]	–	–
267	CCCCc1nc(-c2nc(N)c3c(n2)NC(=O)C3(C)c2ccc(Cl)c(F)c2)cn2ncnc12 (stereo not drawn) [Example 62B, 4-amino-2-(8-butyl-[1,2,4]triazolo[1,5-a]pyrazin-6-yl)-5-(4-chloro-3-fluorophenyl)-5-methyl-5H-pyrrolo[2,3-d]pyrimidin-6(7H)-one]	–	–

From US10925876B2, “Methods for using triazolo-pyrazinyl soluble guanylate cyclase activators in fibrotic disorders” (Merck Sharp & Dohme Corp., priority 2016, dated 2021)
